In publication PMC9321829 (Chembiochem, 2022):

Target: T1, TAL amo (Aeromonas molluscorum, UniProt R1H7C8)
T1 sequence (R1H7C8 1-531): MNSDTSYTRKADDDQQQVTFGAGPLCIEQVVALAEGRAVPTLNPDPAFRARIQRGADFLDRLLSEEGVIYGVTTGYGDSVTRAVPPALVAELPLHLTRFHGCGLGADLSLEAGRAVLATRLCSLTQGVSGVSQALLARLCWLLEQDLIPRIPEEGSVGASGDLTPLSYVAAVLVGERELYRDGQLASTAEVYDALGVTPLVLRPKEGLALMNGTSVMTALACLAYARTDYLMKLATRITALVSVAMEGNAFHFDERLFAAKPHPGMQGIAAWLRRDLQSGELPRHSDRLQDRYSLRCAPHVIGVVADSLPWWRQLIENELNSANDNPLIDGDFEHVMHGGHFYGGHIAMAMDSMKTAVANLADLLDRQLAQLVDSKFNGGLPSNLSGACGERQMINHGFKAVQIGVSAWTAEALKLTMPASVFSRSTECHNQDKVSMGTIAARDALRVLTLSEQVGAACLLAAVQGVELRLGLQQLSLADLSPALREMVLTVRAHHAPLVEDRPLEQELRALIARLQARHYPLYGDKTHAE
Assay: UV assay, cinnamic acid formation at […] nm
Assay type: biochemical
Conditions: 10 mM substrate, 20 mM PBS pH 7.5, 25 °C

N[C@@H](Cc1ccccc1)C(=O)O [L-phenylalanine]
UV assay, cinnamic acid formation at 290 nm: They presented a slight activity towards L‐phenylalanine.
